Here are results for 15 molecules from patent US11708366B2, “Heteroaryl substituted spiropiperidinyl derivatives and pharmaceutical uses thereof” (Novartis AG, priority 2020, dated 2023).

Assay [1] addresses T1, LTC4S (Homo sapiens (Human), UniProt Q16873). Briefly: Human whole blood HTRF assay (LTC4 release after calcium ionophore A23187). Type of assay: cell-based. As to conditions: calcium ionophore A23187 stimulation, LTC4 by HTRF. (In TR-FRET formats the signal depends on donor and acceptor labels being close together.)
Assay [2] concerns the target T1, LTC4S. Briefly: Human LTC4S enzymatic assay (HTRF detection of LTC4-Me). Type of assay: biochemical. As to the method:
A. Human LTC4S Enzymatic Assay:
LTC4 synthase catalyzes the conversion of Leukotriene A4 (LTA4) to Leukotriene C4 (LTC4) in the presence of reduced glutathione (GSH) as a co-substrate. For compound testing, compounds are delivered as 10 mM stock solutions in 90% DMSO in matrix tubes. From this, a 1:3 dilution dose response series is prepared with a starting concentration of 30 μM to 0.1 nM. For the enzymatic assay 97.5 nL of compound/DMSO solution is transferred to each well and 5 μL enzyme solution (assay buffer: 50 mM bis-tris propane pH 7.3, 250 mM NaCl, 10 mM MgCl2, 0.001% MGN3) is added to the wells. […] The enzyme compound mixture is incubated at room temperature for 15 minutes prior to the addition of 5 μL substrate solution. […] A final substrate concentration of 400 μM GSH and 5 μM LTA4-Me is chosen.
The LTA4-Me is obtained commercially in 2% triethylamine/hexane solvent. As this solvent is incompatible with the HTRF assay it has to be exchanged with DMSO according to following procedure: add 50 μL of 100% DMSO to 50 μL LTA4-Me (3 mM) in a 2 mL Eppendorf tube and mix gently by inverting the tube. The triethylamine/hexane is evaporated under a constant argon flux at room temperature. The DMSO-LTA4-Me (3 mM) is aliquoted and stored at −20° C. for not longer than 4 weeks, as it is not stable in DMSO due to its oxidizing properties.
Upon addition of the substrate, the plate is immediately placed on a shaker for 5 min at room temperature. Immediately after the 5 min incubation 5 μL of H2O2 solution is added to all wells to stop the reaction. The plate contents are mixed before the addition of detection reagents. […] For the detection of the product of the enzymatic reaction LTC4-Me, the Cisbio LTC4-HTRF kit is used as the assay is compatible with the detection of LTC4-Me. 5 μL of diluted LTC4-d2 conjugate (according to manufacturer's protocol) are added to all wells of the assay plate and the contents gently mixed and incubated for 5 minutes at room temperature. […] The percent inhibition for each point of an inhibition curve is calculated after data interpolation using the LTC4-Me standard curve, to convert the HTRF signal to the amount of LTC4-Me produced within the LTC4S catalyzed reaction on each plate. The data is analyzed using parametric curve fitting to determine IC50 values of LTC4S inhibitors.

Where [3] appears, read: human whole blood diluted 1:3, 4 h incubation, read-out: human whole blood HTRF IC50.
Setting [4] is: 0.75 nM enzyme, 400 μM GSH, 5 μM LTA4-Me, 15 min pre-incubation, read-out: human LTC4S IC50 (enzymatic assay).
[5] abbreviates: human whole blood HTRF IC50, human whole blood diluted 1:3, 4 h incubation.

For orientation: IC50 means the concentration needed to halve the response being measured. With `O=C1CCCC2(CCN(c3nsc(N4CCCC4)n3)CC2)N1c1ccc(Cl)c(F)c1` [Example 25, 1-(4-chloro-3-fluorophenyl)-9-(5-(pyrrolidin-1-yl)-1,2,4-thiadiazol-3-yl)-1,9-diazaspiro[5.5]undecan-2-one], the figures for the IC50 on LTC4S [1] (setting [3]) and on LTC4S [2] (setting [4]) were 170 nM and 62 nM, respectively.

In the case of `O=C1CCCC2(CCN(c3nc(-c4ccc(F)cc4)n[nH]3)CC2)N1c1ccc(Cl)c(F)c1` [Example 26, 1-(4-chloro-3-fluorophenyl)-9-(3-(4-fluorophenyl)-1H-1,2,4-triazol-5-yl)-1,9-diazaspiro[5.5]undecan-2-one], the values for the IC50 on LTC4S [1] (setting [3]) and on LTC4S [2] (setting [4]) were 110 nM and 16 nM, respectively.

Turning to `O=C1CCCC2(CCN(c3ncc(C4CCCCC4)o3)CC2)N1c1ccc(Cl)c(F)c1` [Example 27, 1-(4-chloro-3-fluorophenyl)-9-(5-cyclohexyloxazol-2-yl)-1,9-diazaspiro[5.5]undecan-2-one], the IC50 on LTC4S [1] (setting [3]) turned out to be 59 nM; on LTC4S [2] (setting [4]) it was 25 nM.

For `O=C1CCCC2(CCN(c3nnc(-c4ccccc4)o3)CC2)N1c1ccc(Cl)c(F)c1` [Example 28, 1-(4-chloro-3-fluorophenyl)-9-(5-phenyl-1,3,4-oxadiazol-2-yl)-1,9-diazaspiro[5.5]undecan-2-one], the IC50 on LTC4S [1] (setting [3]) turned out to be 450 nM; on LTC4S [2] (setting [4]), 110 nM.

In the case of `O=C1CCCC2(CCN(c3cn(-c4ccc(F)cc4)nn3)CC2)N1c1ccc(Cl)c(F)c1` [Example 29, 1-(4-chloro-3-fluorophenyl)-9-(1-(4-fluorophenyl)-1H-1,2,3-triazol-4-yl)-1,9-diazaspiro[5.5]undecan-2-one], the values for the IC50 at LTC4S [1] (setting [5]) and against LTC4S [2] were 180 nM and 57 nM, respectively.

Take `O=C1CCCC2(CCN(c3ccn(-c4ccc(F)cc4)n3)CC2)N1c1ccc(Cl)c(F)c1` [Example 30, 1-(4-chloro-3-fluorophenyl)-9-(1-(4-fluorophenyl)-1H-pyrazol-3-yl)-1,9-diazaspiro[5.5]undecan-2-one]: the IC50 came out at 360 nM at LTC4S [1] (setting [3]) and 13 nM at LTC4S [2] (setting [4]).

As for `O=C1CCCC2(CCN(c3cnn(-c4ccc(F)cc4)n3)CC2)N1c1ccc(Cl)c(F)c1` [Example 31, 1-(4-chloro-3-fluorophenyl)-9-(2-(4-fluorophenyl)-2H-1,2,3-triazol-4-yl)-1,9-diazaspiro[5.5]undecan-2-one], the IC50 is 120 nM on LTC4S [1] (setting [3]) and 15 nM on LTC4S [2] (setting [4]).

For `O=C1CCCC2(CCN(c3cccc(-c4ccc(F)cc4)n3)CC2)N1c1ccc(Cl)cc1` [Example 32, 1-(4-chlorophenyl)-9-(6-(4-fluorophenyl)pyridin-2-yl)-1,9-diazaspiro[5.5]undecan-2-one], the IC50 was 170 nM on LTC4S [1] (setting [3]) and 7 nM at LTC4S [2] (setting [4]).

Turning to `O=C1CCCC2(CCN(c3cc(-c4ccc(F)cc4)cc[n+]3[O-])CC2)N1c1ccc(Cl)c(F)c1` [Example 33, 2-(1-(4-chloro-3-fluorophenyl)-2-oxo-1,9-diazaspiro[5.5]undecan-9-yl)-4-(4-fluorophenyl)pyridine 1-oxide], the IC50 was 56 nM on LTC4S [1] (setting [3]) and 24 nM at LTC4S [2] (setting [4]).

Regarding `O=C1CCCC2(CCN(c3ccnc(N4CC5(CC5)C4)n3)CC2)N1c1ccc(Cl)c(F)c1` [Example 35a, 9-(2-(5-azaspiro[2.3]hexan-5-yl)pyrimidin-4-yl)-1-(4-chloro-3-fluorophenyl)-1,9-diazaspiro[5.5]undecan-2-one], the half-maximal inhibitory concentration (IC50) turned out to be 40 nM at LTC4S [1] (setting [5]) and 12 nM at LTC4S [2].

Turning to `O=C1CCCC2(CCN(c3ncnc(N4CCCC4)c3F)CC2)N1c1ccc(Cl)c(F)c1` [Example 36, 1-(4-chloro-3-fluorophenyl)-9-(5-fluoro-6-(pyrrolidin-1-yl)pyrimidin-4-yl)-1,9-diazaspiro[5.5]undecan-2-one], the IC50 on LTC4S [1] (setting [3]) amounted to 44 nM; on LTC4S [2] (setting [4]), 6 nM.

In the case of `O=C1CCCC2(CCN(c3ncnc(N4CC(C(F)(F)F)C4)c3F)CC2)N1c1ccc(Cl)c(F)c1` [Example 37, 1-(4-chloro-3-fluorophenyl)-9-(5-fluoro-6-(3-(trifluoromethyl)azetidin-1-yl)pyrimidin-4-yl)-1,9-diazaspiro[5.5]undecan-2-one], the IC50 turned out to be 120 nM at LTC4S [1] (setting [3]) and 12 nM at LTC4S [2] (setting [4]).

For the molecule `O=C1CCCC2(CCN(c3ncnc(N4CCCC4)n3)CC2)N1c1ccc(Cl)c(F)c1` [Example 38, 1-(4-chloro-3-fluorophenyl)-9-(4-(pyrrolidin-1-yl)-1,3,5-triazin-2-yl)-1,9-diazaspiro[5.5]undecan-2-one], the IC50 at LTC4S [1] (setting [3]) came out at 86 nM; on LTC4S [2] (setting [4]) it was 8 nM.

Consider `O=C1CCCC2(CCN(c3cc(OCC(F)(F)F)ccn3)CC2)N1c1ccc(Cl)c(F)c1` [Example 81, 1-(4-chloro-3-fluorophenyl)-9-(4-(2,2,2-trifluoroethoxy)pyridin-2-yl)-1,9-diazaspiro[5.5]undecan-2-one], for which the values for the half-inhibitory concentration (IC50) on LTC4S [1] (setting [3]) and at LTC4S [2] (setting [4]) were 72 nM and 13 nM, respectively.

`O=C1CCCC2(CCN(c3cc(OCC(F)F)ncn3)CC2)N1c1ccc(Cl)c(F)c1` [Example 84, 1-(4-chloro-3-fluorophenyl)-9-(6-(2,2-difluoroethoxy)pyrimidin-4-yl)-1,9-diazaspiro[5.5]undecan-2-one]: the IC50 at LTC4S [1] (setting [3]) worked out at 9 nM; on LTC4S [2] (setting [4]), 8 nM.
